From article PMC6917776, “Discovery of a chemical probe for PRDM9” (Nature Communications, 2019)
Read-outs that look alike come from different tables or passages of the source.

Columns and labels:
[1] = test system: 32 protein, DNA and RNA methyltransferases; experiment: Methyltransferase selectivity assay (whole panel); format: biochemical; settings: tested at 1 µM and 10 µM of compounds
Procedure: Selectivity against methyltransferases were determined as described previously. Details of the assays are described in the supplementary methods. […]
were tested at (circle) 1 µM and (triangle) 10 µM of compounds. PRDM9 was the only methyltransferase in this panel of MTs that was inhibited by MRK -740.
Effect of both compounds on PRDM7 is presented in figure 1D in the main text. Each experiment was performed at two concentrations (1 and 10 µM) of compounds and in duplicate (n=2). Source data are provided as a Source Data file .
(1 picture or pasted object on this page, not shown here)
(§1) Methyltransferase selectivity assay1
The effect of chemical probes and negative controls on the methyltransferase activities of protein, DNA and RNA methyltransferases was tested by radiometric assays using 3H-SAM. For proteins such as MLL1 trimeric, MLL3 pentameric, EZH1 (PRC2) pentameric, and EZH2 (PRC2) trimeric complexes, as well as G9a, GLP, SUV39H1, SUV39H2, SUV420H1, SUV420H2, SETD2, SETD8, SETDB1, SETD7, PRMT1, PRMT3, PRMT4, PRMT5/ MEP50 complex, PRMT6, PRMT7, PRMT8, PRMT9, PRDM9, SMYD2, SMYD3, DNMT1, and BCDIN3D the incorporation of a tritium-labeled methyl group into biotinylated substrate was monitored using scintillation proximity assay (SPA). […] The counts per minute (CPM) was measured on a TopCount plate reader. […]

NSD2 = molecular target: T1, NSD2 (Homo sapiens, UniProt O96028); experiment: Methyltransferase selectivity assay (filter-based, nucleosome substrate); format: biochemical
T1 construct: purchased Structural Genomics Consortium (SGC Toronto) in-house methyltransferase panel
T1 sequence (O96028 1-1365): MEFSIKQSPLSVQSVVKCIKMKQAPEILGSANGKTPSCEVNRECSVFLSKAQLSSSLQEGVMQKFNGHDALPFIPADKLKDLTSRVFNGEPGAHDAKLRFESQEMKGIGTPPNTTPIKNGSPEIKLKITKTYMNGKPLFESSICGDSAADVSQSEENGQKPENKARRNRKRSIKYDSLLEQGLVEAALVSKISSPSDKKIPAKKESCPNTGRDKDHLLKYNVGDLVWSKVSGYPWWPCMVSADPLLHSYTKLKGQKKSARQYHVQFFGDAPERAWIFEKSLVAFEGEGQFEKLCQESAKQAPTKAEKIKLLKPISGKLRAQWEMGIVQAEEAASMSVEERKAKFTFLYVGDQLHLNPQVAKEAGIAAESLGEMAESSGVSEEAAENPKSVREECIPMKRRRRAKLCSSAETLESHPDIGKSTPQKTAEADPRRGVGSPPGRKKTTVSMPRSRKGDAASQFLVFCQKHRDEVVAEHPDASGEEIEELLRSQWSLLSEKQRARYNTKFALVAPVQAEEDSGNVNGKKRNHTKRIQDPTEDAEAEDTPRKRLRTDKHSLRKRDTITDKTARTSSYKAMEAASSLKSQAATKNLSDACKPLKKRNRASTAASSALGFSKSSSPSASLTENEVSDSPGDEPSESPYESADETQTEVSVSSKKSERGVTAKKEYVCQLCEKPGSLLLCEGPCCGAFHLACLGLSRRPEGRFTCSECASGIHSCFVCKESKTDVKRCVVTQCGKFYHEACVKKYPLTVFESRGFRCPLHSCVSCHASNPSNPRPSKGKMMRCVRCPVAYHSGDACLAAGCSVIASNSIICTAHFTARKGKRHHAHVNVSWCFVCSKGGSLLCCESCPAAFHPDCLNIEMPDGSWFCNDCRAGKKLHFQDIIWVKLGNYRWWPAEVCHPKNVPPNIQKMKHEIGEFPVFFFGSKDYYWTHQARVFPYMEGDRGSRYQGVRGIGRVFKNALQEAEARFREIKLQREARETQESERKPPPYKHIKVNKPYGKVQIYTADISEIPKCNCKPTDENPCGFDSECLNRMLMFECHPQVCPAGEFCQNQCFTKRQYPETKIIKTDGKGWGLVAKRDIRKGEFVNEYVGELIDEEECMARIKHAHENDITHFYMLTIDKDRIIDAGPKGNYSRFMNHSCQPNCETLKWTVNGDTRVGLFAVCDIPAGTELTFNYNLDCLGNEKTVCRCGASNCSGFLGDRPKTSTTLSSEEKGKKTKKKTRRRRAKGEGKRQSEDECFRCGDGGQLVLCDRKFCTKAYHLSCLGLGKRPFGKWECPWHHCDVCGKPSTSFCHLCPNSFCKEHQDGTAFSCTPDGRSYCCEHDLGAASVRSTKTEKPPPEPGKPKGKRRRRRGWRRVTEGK
Procedure: Selectivity against methyltransferases were determined as described previously. Details of the assays are described in the supplementary methods.
as §1
The effect of chemical probes and negative controls on the methyltransferase activities of protein, DNA and RNA methyltransferases was tested by radiometric assays using 3H-SAM. […]
The CPM in the absence of compound or enzyme was defined as 100% activity and background (0%), respectively, for each dataset. […]
For proteins which were tested with nucleosome as substrate such as DOT1L, NSD1, NSD2, NSD3, and ASH1L, or unbiotinylated Poly(2′-deoxyinosinic-2′-deoxycytidylic acid) (Cat# 81349-500UG, Sigma Aldrich) such as DNMT3A/3L, and DNMT3B/3L, a filter-based assay was used. In this assay, a trichloroacetic acid (TCA) protein precipitation protocol was employed. A 10 µL reaction mixture was incubated at 23°C for 1 h, followed by addition of 50 µL of 10% TCA. The mixture was transferred to filter plates (Millipore, Billerica, MA, USA) that were centrifuged at 2000 rpm (Allegra X-15R; Beckman Coulter, Brea, CA, USA) for 2 min. Samples were washed twice with 10% TCA and once with ethanol (180 µL), and centrifuged. After drying, 100 µL MicroScint-O (Perkin Elmer) was added to each well and the plates were centrifuged to remove the liquid. A 70 µL volume of MicroScint-O was added and the CPM was measured with a TopCount plate reader.

[2] = 10µM compound, Exp1, Exp2, 10 µM

Question: `COc1cc(OC)cc(-c2noc(N3CCN(C)C4(CCN(c5ccccc5)CC4)C3)n2)c1` [MRK-740-NC] was tested. Which “Methyltransferase selectivity (in words)” value [1] did it give?
Answer: Its value is “no effect on activity of any of 33 MTs”.

Question: Which Activity % (NSD2; 1µM compound, Exp1, Exp2, 1 µM) does the source give for `COc1cc(OC)cc(-c2noc(N3CCN(C)C4(CCN(c5ccnc(C)c5)CC4)C3)n2)c1` [MRK-740] here?
Answer: Its Activity % is 97%.

Question: And the activity at 1 µM (NSD2; 1µM compound, Exp1, Exp2, read-out: Activity %)?
Answer: Its activity at 1 µM is 91%.

Question: What about the Activity % (NSD2; [2]) of the same compound?
Answer: The Activity % was 95%.

Question: And the activity at 10 µM (NSD2; 10µM compound, Exp1, Exp2, read-out: Activity %)?
Answer: The activity at 10 µM was 98%.

Question: And the “Methyltransferase selectivity (in words)” value [1]?
Answer: The value was “selective”.

Question: With `COc1cc(OC)cc(-c2noc(N3CCN(C)C4(CCN(c5ccccc5)CC4)C3)n2)c1` [MRK-740 -NC] as the compound, how does the activity at 1 µM (NSD2; 1µM compound, Exp1, Exp2) read?
Answer: The activity at 1 µM was 98%.

Question: What about the Activity % (NSD2; 1µM compound, Exp1, Exp2, 1 µM) of the same compound?
Answer: The Activity % was 100%.

Question: And the activity at 10 µM (NSD2; 10µM compound, Exp1, Exp2)?
Answer: Its activity at 10 µM is 98%.

Question: What about the Activity % (NSD2; [2]) of the same compound?
Answer: Its Activity % is 88%.
